Source: patent US4474977A, “Amino-alcohol derivatives” (Continental Pharma S.A., priority 1977, dated 1984)
Like-named read-outs stand apart in the source and are kept apart here.

Key:
[1] = test system: epididymal fat of the rat; test: effect on in vitro induced lipolysis in epididymal fat of the rat; details: in words
Procedure: The effect on the in vitro induced lipolysis in the epididymal fat of the rat was measured by colorimetry of fatty acids liberated during the tissue incubation under the experimental conditions such as described hereinafter.
Male Sprague-Dawley rats weighing about 250 gr were sacrified by cervical dislocation after a fasting period of 18 hours. The quickly taken-off epididymal fat was placed in a Krebs-Ringer phosphate buffer at pH 7.4, containing 1% albumin.
The tissue was cut into fragments of ±20 mgr, which were dried on filter paper and homogeneously distributed in groups of ±150 mgr weighed with precision. Each group was pre-incubated (15 minutes, 37° C., stirring) in 5 ml of Krebs-Ringer phosphate buffer (pH 7.4) containing 7% of bovine albumin and the product to be tested.
After pre-incubation, 1 ml of the medium is taken off for determining the amount of basic lipolysis. The induction agent in solution in 0.1 ml of phosphate buffer is then added to 4 ml of the remaining medium and after incubation of 90 minutes under the same conditions, liberated fatty acids are titrated in 1 ml of medium according to a variant of the colorimetric method of W. G. Duncombe (Biochem. J., 83, 6P, 1962; Biochem. J., 88, 7-10, 1963; Clin. Chem. Acta, 9, 122-125, 1964).

[2] = test system: spontaneously hypertensive rats; test: antihypertensive activity, oral administration to non-anesthetized spontaneously hypertensive rats, systolic arterial pressure (plethysmographic); assay type: in vivo, rat; details: 60 mgr/kg oral (some also at other doses); in words
Procedure: Their antihypertensive activity was tested by oral administration to non-anesthetized, spontaneously hypertensive rats, on which the systolic arterial pressure is measured at the level of the median coccygeal artery by means of a plethysmographic method (J. Roba, G. Lambelin, A. F. De Schaepdryver, Arch. int. Pharmacodyn., 200, 182, 1972). The arterial pressure was measured every 30 minutes from two hours before to three hours after oral administration of 60 mgr/kg of the tested products or of a placebo (1% tragacanth gum mucilage). When being of interest, the products were tested at other doses under similar conditions. Only rats having a systolic pressure of 180 to 220 mm Hg were used. Two rats were used for each product. The treatments were made without the knowledge of the person making the measures. The antihypertensive effects were rated as follows:
+: reduction of 10 to 20 mm Hg
++: reduction of 20 to 30 mm Hg
+++: reduction of 30 to 50 mm Hg
++++: reduction >50 mm Hg

[3] = test system: human platelet rich plasma (PRP); test: blood platelet aggregation (Born method) in human platelet rich plasma; assay type: cell-based; details: 24 μl of 2×10^-2 M solution added to 300 μl PRP; induced by thrombofax or collagen; in words
Procedure: The blood platelet aggregation was studied according to the Born Method (J. Physiol., 168, 178, 1963). Nine volumes of human venous blood were taken off and anticoagulated with one volume of a trisodium citrate solution (0.129 M). The blood was centrifuged at 200 g for 10 minutes (22° C.) for preparing the platelet rich plasma (PRP). Methanol or acetone was used in order to obtain 2×10^-2 M solutions of the various involved products, 24 μl of each product were added to 300 μl of PRP. For controls, 24 μl of the various hereinabove mentioned solvents were used. The products were pre-incubated in the presence of PRP for 4 minutes at 37° C. under continuous stirring (1100 rpm). After this incubation period, the platelet aggregation was induced by addition of 100 μl of thrombofax or collagen. The aggregation phenomenon was quantified by graphical determination of the aggregation amplitude (A).
The inhibition percentage of the agglutination amplitude was calculated as follows:
A (% inhibition): 100-(Ax /Ao)×100
Ax : value of aggregation amplitude in the presence of examined products
Ao : value of aggregation amplitude for controls

[4] = test system: guinea pig ileum; test: antispasmodic activity against contractions of guinea pig ileum induced by histamine and acetylcholine; details: Cavia porcellus
Procedure: The antispasmodic activity of the products according to the invention was tested against contractions of guinea pig ileum, such as induced by histamine and acetylcholine. These tests allow to reveal an antihistaminic activity, an anticholinergic activity or a musculotropic antispasmodic activity. The response to the contracting agent (submaximum concentration)was repeated every 5 minutes before and after injection of increasing doses of the tested products (10^-8 to 10^-5 M). The various doses were added at intervals of 20 minutes or of the time necessary to the development of the maximum effect.
The percentage of inhibition under the influence of tested products was calculated and the theoretical concentration ensuring 50% inhibition was graphically determined for each experience. These values were expressed as -log IC50 (M). The standard value for papaverine was 4.50, namely an effective concentration of 30 μM.

[5] = test system: femoral arterial circulation; test: peripheral vasodilator activity on anaesthetized dog, femoral arterial perfusion pressure; assay type: in vivo; details: 30 μg/kg injected in femoral perfusion (some also at other doses); in words
Procedure: The peripheral vasodilator activity of the products according to the invention was measured on anaesthetized dog at the level of the femoral arterial circulation. To this end, the femoral artery the collaterals of which were ligaturated was perfused with a constant flow rate of blood taken from aorta. Thus the perfusion pressure measured at the level of the femoral artery, varied as a function of the resistance of perfused area. The tested products and the corresponding solvents were directly injected in the system at the dose of 30 μg/kg. The blood circulation rate being maintained constant, a vasodilation was thus measured by a decrease of the perfusion pressure. The latter is rated in comparison with the action of papaverine considered as standard and injected once per group of 4 products.
When being of interest, the products were tested at other doses under the same conditions. The vasodilation activity was rated as follows:
+: 1/3 of the papaverine activity
++: 2/3 of the papaverine activity
+++: activity equal to that of papaverine (i.e. 30 to 40 mm Hg)
++++: activity higher than that of papaverine.

[6] = contractions induced by histamine and acetylcholine, 10^-8 to 10^-5 M, read-out: -log IC50 (M), antispasmodic activity (converted)

SMILES | effect on induced lipolysis [1] | anti-aggregation effect [3] | IC50 [4, 6] [M] | peripheral vasodilator activity (compared with papaverine) [5] | also measured
CCCCCCCCNC(C)C(O)c1ccc(C)cc1 (centres unmarked) [Compound 75] | active | – | – | – | –
CCCCCCCCNC(C)C(O)c1ccccc1 (centres unmarked) [Compound 76] | active | – | – | – | –
CCCCCCCCNC(C)C(OC(=O)CC(C)(C)C)c1ccc(SC(C)C)cc1.Cl (centres unmarked) [Compound 30, 1-neopentylcarbonyloxy-1-(4-isopropylthiophenyl)-2-n-octylaminopropane (hydrochloride)] | – | strong anti-aggregation effect | < 1e-06 | – | antihypertensive activity [2]: suitable antihypertensive activity
CCCCCCCCNC(C)C(O)c1ccc(OC)cc1 (centres unmarked) [Compound 74, 1-(4-methoxyphenyl)-2-n-octylamino-1-propanol] | active | – | – | at least equal to that of papaverine | –
CCCCCCCCNC(C)C(OC(=O)C(C)(C)C)c1ccc(SC(C)C)cc1 (centres unmarked) [Compound 1] | active | – | < 1e-06 | – | IC50 ([4]; 50% inhibition of contractions, converted from -log IC50, read-out: effective concentration / concentration corresponding to -log IC50 (converted)): < 1e-06 M
CCCCCCCCNC(C)C(OC(C)=O)c1ccc(SC(C)C)cc1.Cl (centres unmarked) [Compound 3, 1-Acetyloxy-1-(4-isopropylthiophenyl)-2-n-octylaminopropane hydrochloride] | – | strong anti-aggregation effect | – | at least equal to that of papaverine | IC50 ([4]; read-out: -log IC50 (M), antispasmodic activity (converted)): < 1e-06 M; IC50 ([4]; read-out: effective concentration / concentration corresponding to -log IC50 (converted)): < 1e-06 M
